From patent US5679701A (priority 1996, dated 1997)
Values joined by “and” are separate entries in the source; they are usually repeats but may differ in a detail not shown here. Identical values can stand only once. “Also recorded” adds a separate entry of the source. Like-named read-outs stand apart in the source and are kept apart here.

Experiments:
[1] = target: T1, Sarcoplasmic Reticular Ca^++ -Release Channel (ryanodine receptor) (Oryctolagus cuniculus, UniProt P11716); conditions: Table II; footnote * J. MED. CHEM. 30 710 (1987); cited from earlier work
T1 construct: skeletal sarcoplasmic reticulum membrane vesicles; from tissue; host or cells: skeletal muscle sarcoplasmic reticulum membrane vesicles
T1 sequence (P11716 whole entry): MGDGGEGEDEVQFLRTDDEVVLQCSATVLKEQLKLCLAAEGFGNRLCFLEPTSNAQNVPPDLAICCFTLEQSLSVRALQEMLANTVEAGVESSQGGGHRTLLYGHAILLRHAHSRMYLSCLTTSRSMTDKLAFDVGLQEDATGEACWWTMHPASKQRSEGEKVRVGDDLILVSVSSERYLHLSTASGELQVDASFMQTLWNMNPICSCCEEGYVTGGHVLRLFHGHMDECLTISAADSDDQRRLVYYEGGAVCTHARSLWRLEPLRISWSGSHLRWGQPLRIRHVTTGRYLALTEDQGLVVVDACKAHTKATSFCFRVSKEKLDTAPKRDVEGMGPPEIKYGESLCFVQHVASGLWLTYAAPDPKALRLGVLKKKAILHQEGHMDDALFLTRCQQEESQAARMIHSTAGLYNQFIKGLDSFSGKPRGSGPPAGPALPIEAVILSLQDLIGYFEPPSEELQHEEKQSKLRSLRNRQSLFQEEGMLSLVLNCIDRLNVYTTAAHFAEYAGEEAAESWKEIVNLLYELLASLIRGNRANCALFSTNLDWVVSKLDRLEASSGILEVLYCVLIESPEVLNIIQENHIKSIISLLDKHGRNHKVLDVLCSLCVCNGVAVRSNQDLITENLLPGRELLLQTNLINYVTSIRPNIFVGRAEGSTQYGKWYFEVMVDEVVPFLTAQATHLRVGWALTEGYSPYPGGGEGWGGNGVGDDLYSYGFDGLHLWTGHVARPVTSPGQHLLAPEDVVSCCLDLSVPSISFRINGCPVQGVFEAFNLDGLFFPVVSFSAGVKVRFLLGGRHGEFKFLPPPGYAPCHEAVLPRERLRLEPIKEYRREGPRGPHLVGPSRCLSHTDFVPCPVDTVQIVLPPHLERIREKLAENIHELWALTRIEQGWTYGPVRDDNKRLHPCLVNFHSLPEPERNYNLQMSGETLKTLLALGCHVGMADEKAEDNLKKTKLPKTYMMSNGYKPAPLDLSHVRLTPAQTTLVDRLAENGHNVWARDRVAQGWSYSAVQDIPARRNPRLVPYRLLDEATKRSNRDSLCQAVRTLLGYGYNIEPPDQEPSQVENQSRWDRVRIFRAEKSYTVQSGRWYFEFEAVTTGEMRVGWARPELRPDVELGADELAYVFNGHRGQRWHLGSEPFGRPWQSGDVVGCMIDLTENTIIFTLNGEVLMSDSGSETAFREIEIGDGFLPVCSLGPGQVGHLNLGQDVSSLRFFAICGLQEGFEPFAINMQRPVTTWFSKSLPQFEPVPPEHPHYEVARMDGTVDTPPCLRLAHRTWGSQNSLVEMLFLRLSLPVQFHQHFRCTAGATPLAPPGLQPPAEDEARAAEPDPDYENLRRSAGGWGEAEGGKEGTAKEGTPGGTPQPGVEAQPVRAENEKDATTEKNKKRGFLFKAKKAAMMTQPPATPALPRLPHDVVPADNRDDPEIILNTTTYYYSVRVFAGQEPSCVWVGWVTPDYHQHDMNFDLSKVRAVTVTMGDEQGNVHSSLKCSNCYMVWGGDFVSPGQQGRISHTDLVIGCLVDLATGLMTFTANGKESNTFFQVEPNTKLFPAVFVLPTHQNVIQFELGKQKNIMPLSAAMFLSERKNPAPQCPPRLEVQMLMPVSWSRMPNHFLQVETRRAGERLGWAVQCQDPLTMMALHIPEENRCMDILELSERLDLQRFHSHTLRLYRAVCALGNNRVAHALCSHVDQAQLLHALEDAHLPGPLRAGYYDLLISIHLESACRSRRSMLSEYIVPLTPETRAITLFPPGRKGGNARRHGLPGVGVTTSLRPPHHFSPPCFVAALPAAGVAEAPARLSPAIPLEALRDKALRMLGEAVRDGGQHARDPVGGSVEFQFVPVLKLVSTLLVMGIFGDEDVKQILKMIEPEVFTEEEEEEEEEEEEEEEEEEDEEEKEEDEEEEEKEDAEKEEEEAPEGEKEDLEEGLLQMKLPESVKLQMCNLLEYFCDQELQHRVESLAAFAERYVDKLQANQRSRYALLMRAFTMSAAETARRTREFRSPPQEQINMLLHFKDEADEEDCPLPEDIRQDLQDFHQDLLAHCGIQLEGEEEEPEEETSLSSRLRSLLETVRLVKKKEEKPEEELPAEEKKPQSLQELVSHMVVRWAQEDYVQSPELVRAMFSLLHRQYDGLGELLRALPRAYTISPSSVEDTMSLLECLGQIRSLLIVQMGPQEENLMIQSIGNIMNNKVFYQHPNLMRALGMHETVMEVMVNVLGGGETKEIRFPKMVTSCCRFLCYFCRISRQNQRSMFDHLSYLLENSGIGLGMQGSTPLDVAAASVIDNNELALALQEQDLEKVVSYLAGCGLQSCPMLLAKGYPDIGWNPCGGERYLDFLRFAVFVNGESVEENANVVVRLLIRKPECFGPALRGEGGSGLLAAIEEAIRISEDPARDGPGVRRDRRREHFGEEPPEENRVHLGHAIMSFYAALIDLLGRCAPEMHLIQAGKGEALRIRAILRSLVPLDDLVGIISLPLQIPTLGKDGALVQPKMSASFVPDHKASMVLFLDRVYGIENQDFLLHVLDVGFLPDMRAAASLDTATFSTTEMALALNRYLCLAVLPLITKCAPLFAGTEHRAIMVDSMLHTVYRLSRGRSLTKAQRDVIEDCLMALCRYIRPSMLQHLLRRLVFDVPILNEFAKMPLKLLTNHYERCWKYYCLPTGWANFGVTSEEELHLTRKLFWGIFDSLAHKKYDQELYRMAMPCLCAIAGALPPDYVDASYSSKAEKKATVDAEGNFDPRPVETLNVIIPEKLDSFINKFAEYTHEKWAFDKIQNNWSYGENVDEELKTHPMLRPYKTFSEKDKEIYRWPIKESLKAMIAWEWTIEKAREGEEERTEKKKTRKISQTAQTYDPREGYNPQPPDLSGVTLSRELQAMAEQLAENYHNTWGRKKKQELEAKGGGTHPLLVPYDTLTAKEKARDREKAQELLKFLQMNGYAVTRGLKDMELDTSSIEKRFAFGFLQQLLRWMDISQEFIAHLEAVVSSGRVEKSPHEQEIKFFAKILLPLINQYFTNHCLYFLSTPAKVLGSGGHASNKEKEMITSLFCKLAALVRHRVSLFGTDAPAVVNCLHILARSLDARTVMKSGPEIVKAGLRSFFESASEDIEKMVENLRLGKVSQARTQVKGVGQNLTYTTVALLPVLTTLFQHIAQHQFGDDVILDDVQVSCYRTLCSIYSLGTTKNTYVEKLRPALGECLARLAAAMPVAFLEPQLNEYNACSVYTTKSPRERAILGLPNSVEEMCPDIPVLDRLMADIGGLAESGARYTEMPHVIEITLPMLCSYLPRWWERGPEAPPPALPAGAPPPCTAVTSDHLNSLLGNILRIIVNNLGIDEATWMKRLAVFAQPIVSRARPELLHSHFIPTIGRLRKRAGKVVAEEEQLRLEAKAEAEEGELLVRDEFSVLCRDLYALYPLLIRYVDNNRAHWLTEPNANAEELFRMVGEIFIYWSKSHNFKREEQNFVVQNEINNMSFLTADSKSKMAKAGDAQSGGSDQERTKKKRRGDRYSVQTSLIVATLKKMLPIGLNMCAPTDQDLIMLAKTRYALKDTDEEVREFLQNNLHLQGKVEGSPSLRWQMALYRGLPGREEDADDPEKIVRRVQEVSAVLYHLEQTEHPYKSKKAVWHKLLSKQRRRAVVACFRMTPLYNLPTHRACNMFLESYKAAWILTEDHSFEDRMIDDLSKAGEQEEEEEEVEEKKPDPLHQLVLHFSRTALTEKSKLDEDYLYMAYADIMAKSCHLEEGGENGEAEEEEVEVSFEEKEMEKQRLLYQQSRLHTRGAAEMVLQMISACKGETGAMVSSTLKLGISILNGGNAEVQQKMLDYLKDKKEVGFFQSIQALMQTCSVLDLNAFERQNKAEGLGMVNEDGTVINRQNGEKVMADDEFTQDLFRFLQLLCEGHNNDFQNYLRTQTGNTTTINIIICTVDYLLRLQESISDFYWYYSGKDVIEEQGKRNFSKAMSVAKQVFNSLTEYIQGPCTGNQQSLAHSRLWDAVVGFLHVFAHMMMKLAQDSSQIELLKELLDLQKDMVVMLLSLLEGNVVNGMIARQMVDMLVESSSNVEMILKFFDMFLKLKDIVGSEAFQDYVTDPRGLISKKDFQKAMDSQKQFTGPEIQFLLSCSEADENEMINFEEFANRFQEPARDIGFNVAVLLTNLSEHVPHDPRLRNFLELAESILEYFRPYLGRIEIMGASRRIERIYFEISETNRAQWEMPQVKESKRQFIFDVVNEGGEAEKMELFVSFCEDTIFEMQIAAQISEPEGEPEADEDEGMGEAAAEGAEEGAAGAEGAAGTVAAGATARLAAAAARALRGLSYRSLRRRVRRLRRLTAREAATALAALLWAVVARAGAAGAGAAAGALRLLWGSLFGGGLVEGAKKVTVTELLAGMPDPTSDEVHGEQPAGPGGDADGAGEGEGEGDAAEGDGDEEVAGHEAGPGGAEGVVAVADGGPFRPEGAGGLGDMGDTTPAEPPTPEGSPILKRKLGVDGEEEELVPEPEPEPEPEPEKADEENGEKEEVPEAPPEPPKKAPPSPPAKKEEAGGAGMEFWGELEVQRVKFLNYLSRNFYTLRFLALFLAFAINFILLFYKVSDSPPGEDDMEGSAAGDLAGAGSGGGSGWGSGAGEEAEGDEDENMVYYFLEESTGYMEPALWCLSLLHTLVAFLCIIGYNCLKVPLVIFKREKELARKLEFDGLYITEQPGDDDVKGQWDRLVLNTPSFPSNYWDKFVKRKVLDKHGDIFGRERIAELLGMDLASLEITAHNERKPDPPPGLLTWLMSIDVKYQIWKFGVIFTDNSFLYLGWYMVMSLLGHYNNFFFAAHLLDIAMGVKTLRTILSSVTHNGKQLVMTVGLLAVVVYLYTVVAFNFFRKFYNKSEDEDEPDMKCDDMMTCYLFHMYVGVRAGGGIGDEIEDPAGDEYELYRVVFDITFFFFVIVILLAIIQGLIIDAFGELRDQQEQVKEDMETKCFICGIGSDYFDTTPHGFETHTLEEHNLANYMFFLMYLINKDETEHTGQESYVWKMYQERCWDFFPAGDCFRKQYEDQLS

[2] = target: T2, ryanodine receptor (skeletal sarcoplasmic reticulum membrane vesicles) (Oryctolagus cuniculus, UniProt P11716); experiment: biochemical; assay type: binding; conditions: for IC50: read-out: IC50; for Kd: read-out: KD
T2 construct: skeletal sarcoplasmic reticulum membrane vesicles; from tissue; host or cells: skeletal muscle sarcoplasmic reticulum membrane vesicles
T2 sequence (P11716 whole entry): as above

[3] = test system: mammalian skeletal muscle; conditions: cited from earlier work
[4] = target: SR Ca^2+ release channel (junctional SR vesicles from rabbit skeletal muscle) (Oryctolagus cuniculus, UniProt P11716); experiment: biochemical; assay type: biochemical
SR Ca^2+ release channel (junctional SR vesicles from rabbit skeletal muscle), sequence (P11716 whole entry): as above
Experimental: Briefly, junctional SR vesicles from rabbit skeletal muscle were passively loaded with. ^45 Ca^2+ in the presence and absence of the esters. Ca^2+ -efflux was then initiated by diluting the vesicles 100-fold into a low Ca^2+ -concentration. ^45 Ca^2+ remaining in the vesicles was determined after a 3 sec. efflux period by termination and filtration of the vesicles followed by liquid scintillation counting.

[5] = test system: SR Ca^++ release channel/ryanodine receptor (cardiac and skeletal muscle vesicles); assay type: biochemical
mammalian cardiac muscle = conditions: cited from earlier work
[6] = test system: skeletal muscle sarcoplasmic reticulum (SR); conditions: cited from earlier work
[7] = target: T1, Sarcoplasmic Reticular Ca^++ -Release Channel (ryanodine receptor); experiment: biochemical; assay type: binding; conditions: vs ryanodine
[8] = 45Ca2+ efflux, skeletal SR vesicles

CC1=C(C(C)C)[C@@H](OC(=O)c2ccc[nH]2)[C@@]2(O)[C@@]3(C)CC(=O)O[C@@]4([C@H](O)[C@@H](C)CC[C@]34O)[C@@]12O [Anhydro-Ryanodine, reference compound]
IC50 [1]: > 1000 nM
IC50 ([2]; first embodiment): > 1000 nM
Kd ([2]; first embodiment): > 350 nM

CC1CCC2(O)C3(C)CC4(O)OC2(C1O)C1(O)C3(O)C(OC(=O)c2ccc[nH]2)C(O)(C(C)C)C41C (stereo not shown) [Ryanodine, ryanodine]
effect on mammalian skeletal muscle (in words) [3]: irreversible contracture
opening (activation) of the SR CRC (in words) [4]: activates the SR CRC at low μM concentrations; also recorded: induces full opening of the SR CRC
concentration inducing deactivation of the channel [4, 8]: higher than 30 μM
concentration of maximal channel activation [4, 8]: about 30 μM
closing of the SR Ca^++ release channel (in words) ([5]; I, NMDS: concentrations as high as 300 μM, ryanodine, dehydroryanodine: >μM): closes or inactivates the SR Ca^++ release channels; also recorded: inhibits Ca^++ flux by inactivating or closing the channel; also recorded: the channel is closed
opening of the SR Ca^++ release channel (in words) ([5]; ryanodine, dehydroryanodine: low concentrations (<μM)): opens the SR Ca^++ release channel/ryanodine receptor
opening of the SR Ca^++ release channel (in words) ([5]; ryanodine, dehydroryanodine: low concentrations (<μM), listed as ryanodine): enhances Ca^++ flux across the SR membrane by opening the SR Ca^++ release channel; also recorded: the Ca^++ release channel is opened
effect on mammalian cardiac muscle (in words) (mammalian cardiac muscle): negative inotropic effect
effect on active uptake of Ca^++ by skeletal muscle SR (in words) [6]: obstruct active uptake

CC1CCC2(O)C3(C)CC4(O)OC2(C1OC(=O)CCN)C1(O)C3(O)C(OC(=O)c2ccc[nH]2)C(O)(C(C)C)C41C (stereo not drawn) [V-II, O10eq -β-Alanyl-Ryanodine]
binding affinity for the ryanodine receptor (in words) [2]: approximately four-fold higher affinity
Kd ([2]; Table I, mean ± standard deviation of replicates): 1 ± 0.3 nM
IC50 ([2]; V-II from direct preparation by hydrogenolysis of IV in presence of triethylamine): 4.3 nM
IC50 ([2]; first embodiment): 2.8 ± 0.8 nM
Kd ([2]; first embodiment): 1 nM
binding affinity to the ryanodine receptor relative to ryanodine (times stronger/greater) ([2]; vs ryanodine): 3.5-4 times and 4 times
relative binding affinity compared with ryanodine (in words) [7]: two to three-fold greater RBA
opening (activation) of the SR CRC (in words) [4]: induces full opening of the SR CRC
EC (maximal activation) ([4]; 3 s, 45Ca2+ efflux, skeletal SR vesicles, read-out: concentration of maximal channel activation): 10 µM
closing (deactivation) of the SR CRC (in words) ([4]; higher concentrations, up to 1 mM for V-II, XXI preliminary): none of the closing action seen with high concentrations of ryanodine
shift of activation curve relative to ryanodine ([4]; towards lower concentrations): three-fold
pharmacological profile (in words) ([4]; vs biphasic profile of ryanodine): altered--unidirectional--pharmacological profile, differing from the biphasic profile of ryanodine
opening of the SR Ca^++ release channel (in words) [5]: exhibits only the ability to enhance Ca^++ flux by opening the SR Ca^++ channel
